Experimental data reported in article PMC12040169 (PLOS Biology, 2025).

Assay: in vitro
Conditions: human, hela cells, % viability

Row | SMILES | viability at 28.5 h, 10 µM
1 | N#Cc1ccccc1CSc1nnc(Cc2cccc3ccccc23)n1-c1ccccc1 [CBK266633] | 89.7%
2 | COc1ccccc1Nc1nc(N)nc(CN2CCc3ccccc3C2)n1 [CBK266635] | 95.1%
3 | Cc1ccc(S(=O)(=O)N2CCC(C(=O)O)CC2)cc1C(=O)O [CBK266636] | 99.6%
4 | O=C(CSc1nnc(-c2ccccc2)n1-c1ccc(Cl)cc1)NCc1ccco1 [CBK266637] | 99.2%
5 | Cc1cc(=O)oc2ccc(OCC(=O)N(Cc3ccc(F)cc3)Cc3ccco3)cc12 [CBK266639] | 103%
6 | COc1ccc(-c2nnc3c4ccccc4c(C)nn23)cc1S(=O)(=O)N1CCCCC1 [CBK266640] | 110%
7 | COc1cc(/C=C2/C(=O)N(c3nnn[nH]3)N=C2C)ccc1OC(=O)c1cccs1 [CBK266641] | 112%
8 | COc1ccccc1C1=NN(C(=O)CCCC(=O)O)C(c2ccco2)C1 (centres unmarked) [CBK266642] | 91.8%
9 | Cc1ccc2nc(-c3ccc(N4C(Nc5nc(C)cc(C)n5)=NC(=O)CC4C(=O)O)cc3)sc2c1 (centres unmarked) [CBK266646] | 104%
10 | CCOc1ccccc1NC(=O)C(C)Oc1ccc(OC)cc1 (centres unmarked) [CBK266648] | 39.6%
11 | O=C(O)CCC(=O)N1N=C(c2ccccc2)CC1c1ccc2nccnc2c1 (centres unmarked) [CBK266650] | 86.1%
12 | Cc1ccc(CNC(=O)CSc2nnc(-c3ccncc3)n2-c2ccccc2)cc1 [CBK266654] | 102%
13 | O=C(CSc1nnc(CN2CCOCC2)n1-c1ccccc1)N1CCN(c2ccccc2)CC1 [CBK266660] | 102%
14 | COc1ccc(OC(C)C(=O)Nc2ccccc2-c2ccccc2)cc1 (centres unmarked) [CBK266661] | 94.2%
15 | Cc1cc(C)c(S(=O)(=O)N(CC(=O)O)C2CCCCC2)c(C)c1 [CBK266663] | 92.6%
16 | CCCNc1nc(Nc2ccc(C)cc2)nc(N2CCOCC2)n1 [CBK266664] | 111%
17 | O=C(NCCN1CCOCC1)c1cccc(S(=O)(=O)N2CCCCCC2)c1 [CBK266668] | 97.3%
18 | COc1ccc(OC(C)C(=O)O/N=C(\N)c2ccccn2)cc1 (centres unmarked) [CBK266669] | 100%
19 | O=C1CC(SCCc2nc3ccccc3[nH]2)C(=O)N1c1cccc(F)c1 (centres unmarked) [CBK266671] | 94.6%
20 | Cc1cc(OCc2nc(-c3ccc(NC(=O)c4ccc5c(c4)OCO5)cc3)no2)ccc1Cl [CBK266673] | 95.7%
21 | Nc1nonc1-n1nnc(C(=O)O)c1-c1cccs1 [CBK266674] | 99.4%

Row | SMILES | viability at 28.5 h, 10 µM
22 | COc1ccccc1Nc1nc(N)nc(CSCCO)n1 [CBK266679] | 91.4%
23 | Cc1ccc(S(N)(=O)=O)cc1-c1nnc2c3ccccc3c(C)nn12 [CBK266680] | 104%
24 | COc1ccc(Nc2nc(N)nc(CSc3nnc(N)s3)n2)cc1 [CBK266682] | 90.6%
25 | Cc1cccc(C)c1NC(=O)Cn1c(SCC(N)=O)nc2ccccc21 [CBK266684] | 106%
26 | Cc1ccc(-c2ccc(/C=C(\C#N)c3nc(-c4ccco4)cs3)o2)c([N+](=O)[O-])c1 [CBK266685] | 96%
27 | O=C(O)CSc1nnc(-c2ccncc2)n1-c1ccc(Cl)cc1 [CBK266686] | 92.1%
28 | COc1ccc(C(=O)Nn2c(SCC(=O)c3ccc(F)cc3)nc3ccccc3c2=O)cc1 [CBK266688] | 99.7%
29 | Nc1nc(COn2c(-c3ccccc3)nc3ccccc3c2=O)nc(-c2ccccc2O)n1 [CBK266689] | 98.6%
30 | O=C(Nc1ccc(-c2noc(COc3ccc(Br)cc3)n2)cc1)c1ccc2c(c1)OCO2 [CBK266692] | 97.2%
31 | CC1(C)CC(=O)C2=C(C1)NC(SCC(=O)Nc1ccc(S(=O)(=O)N3CCCCC3)cc1)=C(C#N)C2c1ccco1 (centres unmarked) [CBK266695] | 94.3%
32 | O=C(CSc1nnc(Cc2cccc3ccccc23)n1-c1ccccc1)N1CCc2ccccc21 [CBK266697] | 99.1%
33 | CCN1CCN(c2ccc(NC(=O)c3ccc(-c4cc5ccccc5oc4=O)cc3)cc2Cl)CC1 [CBK266700] | 84.6%
34 | O=C1CC(SCc2nc3ccccc3[nH]2)C(=O)N1c1ccccc1Cl (centres unmarked) [CBK266702] | 94.7%
35 | COc1cc([N+](=O)[O-])ccc1NC(=O)CS(=O)(=O)Cc1ccccc1 [CBK266704] | 105%
36 | Cc1ccc(S(=O)(=O)NCCOc2nc(N(C)C)nc(N3CCOCC3)n2)cc1 [CBK266705] | 97%
37 | N#Cc1c(N)n(CCN)c2nc3ccccc3nc12 [CBK266706] | 87.4%
38 | CC(=O)Nc1ccc(OC(=O)CSc2nc(C)cc(C)n2)cc1 [CBK266707] | 86.6%
39 | COc1ccccc1Nc1nc(N)nc(CSc2nccn2C)n1 [CBK266710] | 95%
40 | O=C(CC1C(=O)N(c2ccccc2)C(=S)N1NC(=O)c1ccccn1)Nc1ccc(Cl)cc1 (centres unmarked) [CBK266711] | 92.2%
41 | Nc1nnc(Sc2ccc([N+](=O)[O-])c3nonc23)s1 [CBK266712] | 82.3%
42 | CC1(C)CC2(CC(C)(C(=O)CSc3nnc(-c4ccccc4Br)[nH]3)OC2=O)C(=O)O1 (centres unmarked) [CBK266713] | 102%

Row | SMILES | viability at 28.5 h, 10 µM
43 | COc1ccc(Nc2nc(N)nc(CSCCO)n2)cc1 [CBK266714] | 88.3%
44 | O=C(C[S+]([O-])c1ccc(C(F)(F)F)cc1[N+](=O)[O-])Oc1cccc2cccnc12 (centres unmarked) [CBK266716] | 91.6%
45 | Cc1ccc(S(=O)(=O)N(C)CC(=O)O/N=C(\N)c2cccnc2)cc1 [CBK266717] | 110%
46 | O=C(O)C(Cc1ccccc1)Nc1ncnc2c1oc1ccccc12 (centres unmarked) [CBK266719] | 104%
47 | COc1cccc(/C=C(/C#N)c2ccc(Cl)cc2)c1OCc1cccc(C(=O)O)c1 [CBK266721] | 97.2%
48 | NS(=O)(=O)c1ccc(S(=O)(=O)N2CCN(C/C=C/c3ccccc3)CC2)cc1 [CBK266723C] | 95.8%
49 | OCCNc1nc(Nc2ccc(Br)cc2)nc2ccccc12 [CBK266724C] | 87.7%
50 | Cc1cc(C)nc(SCc2nc(N)nc(-c3ccccc3O)n2)n1 [CBK266725] | 94.4%
51 | Cc1cc(C)n(C(=O)c2cccc(S(=O)(=O)N3CCCCCC3)c2)n1 [CBK266727] | 102%
52 | COc1ccc(Nc2nc(N)nc(CSc3nncn3C)n2)cc1 [CBK266730] | 88.9%
53 | O=C1CC(SCc2nc3ccccc3[nH]2)C(=O)N1c1cccc(Cl)c1 (centres unmarked) [CBK266731] | 94.5%
54 | O=C(CSc1nnc(CN2CCOCC2)n1-c1ccccc1)N1CCc2ccccc21 [CBK266733] | 92.7%
55 | CCN1CCN(C(=O)CN(Cc2ccccc2)S(C)(=O)=O)CC1 [CBK266735] | 94.6%
56 | Brc1ccc2nc(NCc3ccccn3)nc(-c3ccccc3)c2c1 [CBK266736] | 89.3%
57 | O=C(CCn1cnc2ccccc2c1=O)Nc1ccc(Cl)c(Cl)c1 [CBK266738] | 89.6%
58 | Cc1nnc(SCc2cc(=O)[nH]c(Nc3nc(C)c4cccc(C)c4n3)n2)s1 [CBK266740] | 92.9%
59 | COC(=O)c1ccccc1NC(=O)Cn1cncc1-c1ccc([N+](=O)[O-])cc1 [CBK266741] | 91.9%
60 | N#C/C(=C(/O)c1ccc(-c2ccc([N+](=O)[O-])cc2Cl)o1)c1nc(-c2ccc(F)cc2)cs1 [CBK266742] | 91%
61 | O=C(O)c1cccc(-n2nnnc2SCc2ccccn2)c1 [CBK266744] | 115%
62 | COc1ccccc1Nc1nc(N)nc(CSc2nc3ccccc3s2)n1 [CBK266747] | 95.7%
63 | COc1ccc(NC(=O)CS(=O)(=O)Cc2ccccc2)c([N+](=O)[O-])c1 [CBK266748] | 93.1%

Row | SMILES | viability at 28.5 h, 10 µM
64 | Nc1cc(N)nc(SCC(=O)Nc2ccc(Oc3ccccc3)cc2)n1 [CBK266749] | 95%
65 | COc1ccc(OC(C)C(=O)Nc2cc3oc4ccccc4c3cc2OC)cc1 (centres unmarked) [CBK266751] | 100%
66 | COc1nc(OCCNS(=O)(=O)c2ccc(C)cc2)nc(N(C)C)n1 [CBK266752] | 117%
67 | Cc1cc(C)c2nc(C(F)(F)F)nc(NCCCN3CCOCC3)c2c1 [CBK266753] | 86.4%
68 | N#C/C(=C/c1ccc(-c2cc(C(=O)O)cc(C(=O)O)c2)o1)c1nc2ccccc2s1 [CBK266754] | 103%
69 | CC(=O)Nc1ccc(NC(=O)CN(C2CCCCC2)S(C)(=O)=O)cc1 [CBK266755] | 93.3%
70 | CCn1c2ccccc2c2cc(NC(=O)CN(C)S(=O)(=O)c3ccc(C)cc3)ccc21 [CBK266756] | 92.8%
71 | Cc1c(NC(=O)CSc2nnc(-c3cccc([N+](=O)[O-])c3)n2C)c(=O)n(-c2ccccc2)n1C [CBK266757] | 95.4%
72 | Cc1ccc(-c2nnc(N3CCN(S(=O)(=O)c4ccc(Cl)cc4)CC3)c3ccccc23)cc1 [CBK266759] | 96.1%
73 | O=C(O)c1cc(NC(=O)c2ccc3c(c2)C(=O)N(Cc2cccnc2)C3=O)cc(C(=O)O)c1 [CBK266761] | 108%
74 | N#Cc1c(NC(=O)c2cccc(S(=O)(=O)Nc3ccc(C(=O)O)cc3)c2)sc2c1CCCC2 [CBK266762] | 106%
75 | N#C/C(=C\c1ccc(OCC(=O)c2ccccc2)cc1)c1nc(-c2cccs2)cs1 [CBK266765] | 95.3%
76 | CN(C)S(=O)(=O)c1cc(C(=O)Nc2ccc(O)cc2)c(Cl)cc1Cl [CBK266767] | 95.4%
77 | N#C/C(=C\c1ccc(OCC(=O)c2ccc(F)cc2)cc1)c1nc(-c2cc3ccccc3oc2=O)cs1 [CBK266769] | 90.6%
78 | O=C(Nc1cc([N+](=O)[O-])ccc1O)c1ccc2c(c1)C(=O)N(Cc1cccnc1)C2=O [CBK266770] | 92.7%
79 | CC1CCN(S(=O)(=O)c2cccc(C(=O)NNC(=O)c3cccc([N+](=O)[O-])c3)c2)CC1 [CBK266774] | 98%
80 | O=C(Nc1ccc(Br)cc1C(=O)O)c1ccc2c(c1)C(=O)N(Cc1cccnc1)C2=O [CBK266776] | 96.7%
81 | O=C(CSCc1ccc(Cl)cc1Cl)Nc1ccc(Oc2ccc3c(c2)C(=O)NC3=O)cc1 [CBK266779] | 92.2%
82 | O=C(OCc1ccc(S(=O)(=O)c2ccccc2)cc1)c1cc(O)nc2ccccc12 [CBK266782] | 93.1%
83 | Cc1cc(Cl)c(S(=O)(=O)Nc2ccon2)cc1OCC(=O)NC1CCCCC1 [CBK266785] | 93.5%
